Data reported in US7705148B2, “Processes for the preparation of 4-[[4-[[4-(2-cyanoethenyl)-2,6-dimethylphenyl]amino]-2-pyrimidinyl]amino]benzonitrile” (priority 2008, dated 2010).

Experiments:
[1] = Cytotoxicity in mock-infected MT-4 cells (MTT); assay type: cell-based; conditions: human, OD 540 nm, read-out: CC50 (50% cytotoxic concentration)
Description: (§1) A rapid, sensitive and automated assay procedure was used for the in vitro evaluation of anti-HIV agents. An […] T4-cell line, MT-4, which was previously shown (Koyanagi et al., Int. J. Cancer, 36, 445-451, 1985) to be highly susceptible to and permissive for HIV infection, served as the target cell line. Inhibition of the HIV-induced cytopathic effect was used as the end point. The viability of both HIV- and mock-infected cells was assessed spectrophotometrically via the in situ reduction of 3-(4,5-dimethylthiazol-2-yl)-2,5-diphenyltetrazolium bromide (MTT). The 50% cytotoxic concentration (CC50 in M) was defined as the concentration of compound that reduced the absorbance of the mock-infected control sample by 50%. The percent protection achieved by the compound in HIV-infected cells was calculated by the following formula:
(§2) [formula] whereby (ODT)HIV is the optical density measured with a given concentration of the test compound in HIV-infected cells; (ODC)HIV is the optical density measured for the control untreated HIV-infected cells; (ODC)MOCK is the optical density measured for the control untreated mock-infected cells; all optical density values were determined at 540 nm. The dose achieving 50% protection according to the above formula was defined as the 50% inhibitory concentration (IC50 in M). The ratio of CC50 to IC50 was defined as the selectivity index (SI).

[2] = system: resistant mutants of HIV-1 (single and double mutants); assay: Replication inhibiting activity towards resistant mutants of HIV-1; assay type: cell-based; conditions: single and double mutants of HIV-1
Description: Compound X was also tested for its replication inhibiting activity towards resistant mutants of HIV-1 (single and double mutants).

[3] = system: HIV; assay: Determination of anti-HIV activity: inhibition of HIV-induced cytopathic effect in MT-4 cells (MTT); assay type: cell-based, Human Immunodeficiency Virus
Description: as §1, §2

Cc1cc(/C=C/C#N)cc(C)c1Nc1ccnc(Nc2ccc(C#N)cc2)n1 [Compound X, 4-[[4-[[4-(2-cyanoethenyl)-2,6-dimethylphenyl]amino]-2-pyrimidinyl]amino]benzonitrile (E)]
CC50 [1]: 10 µM
replication inhibiting activity against resistant strains [2]: high activity
SI (selectivity index, ratio of CC50 to IC50) [3]: 25,119
